Test results published in patent US20230096051A1, “CGRP ANTIGONISTS USEFUL AS TRACER COMPOUNDS FOR POSITRON EMISSION TOMOGRAPHY” (Eli Lilly and Company, priority 2019, published 2023).

Experiments:
[1] = target: T1, hCGRP (human calcitonin gene-related peptide) receptor (Homo sapiens, UniProt O60894+Q16602); test: Inhibition of cAMP production by CGRP receptor antagonists in SK-N-MC neuroblastoma cells (HTRF); type: cell-based; details: human CGRP 0.8 nM as agonist, Kb estimated as agonist-corrected IC50, read-out: hCGRP Kb ± SD
T1 construct: Cultured SK-N-MC neuroblastoma cells that endogenously express the hCGRP receptor (ATCC); host or cells: SK-N-MC neuroblastoma cells
T1 sequence (Q16602 23-461): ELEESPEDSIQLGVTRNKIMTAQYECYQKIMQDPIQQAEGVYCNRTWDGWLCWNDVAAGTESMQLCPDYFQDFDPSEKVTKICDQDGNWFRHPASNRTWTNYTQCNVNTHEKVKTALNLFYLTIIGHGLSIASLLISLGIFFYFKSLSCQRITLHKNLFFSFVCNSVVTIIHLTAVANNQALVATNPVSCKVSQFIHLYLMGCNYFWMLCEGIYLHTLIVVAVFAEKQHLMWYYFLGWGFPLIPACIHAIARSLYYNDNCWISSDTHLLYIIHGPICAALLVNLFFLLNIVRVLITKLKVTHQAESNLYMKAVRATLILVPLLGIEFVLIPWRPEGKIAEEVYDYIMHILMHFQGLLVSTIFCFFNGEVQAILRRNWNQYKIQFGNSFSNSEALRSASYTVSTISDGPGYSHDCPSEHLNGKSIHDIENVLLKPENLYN
T1 sequence (O60894 27-148): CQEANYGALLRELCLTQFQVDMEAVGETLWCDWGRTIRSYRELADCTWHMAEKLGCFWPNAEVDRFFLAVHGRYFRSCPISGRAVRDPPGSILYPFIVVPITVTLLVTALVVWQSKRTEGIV
Procedure: The hCGRP (human calcitonin gene-related peptide) receptor is functionally coupled to the Gas proteins. Stimulation by hCGRP results in an increased synthesis of intracellular cAMP and can be blocked by the addition of receptor antagonists. Receptor activity is thus a reflection of the amount of cAMP present within cells which can be detected using standard in vitro technology.
Cell Culture: Cultured SK-N-MC neuroblastoma cells that endogenously express the hCGRP receptor (ATCC) are grown in Eagle's Minimum essential medium (HYCLONE™) supplemented with 10% heat-inactivated Fetal bovine serum (FBS; GIBCO®), Non-Essential Amino Acids (GIBCO®), 1 mM sodium pyruvate, 2 mM L-glutamine, 100 U/mL of penicillin, and 10 μg/mL of streptomycin to about 70% confluency. After providing fresh medium, the cells are incubated at 37° C. overnight. On the day of the assay, cells are detached using ACCUTASE® (MP Biomedicals), resuspended in assay buffer [Hank's Balanced Salt Solution/Dulbecco's phosphate-buffered saline with […] each of CaCl2 and MgCl2 mixed 1:2, 3.3 mM 4-(2-hydroxyethyl)-1-piperazineethanesulfonic acid, 0.03% bovine serum albumin, and 0.5 mM 1-methyl-3-isobutylxanthine (as inhibitor of cAMP)], and seeded 3-5K/well into 384-well, poly-D-lysine coated white plates (BD Biosciences).
Inhibition of cAMP Production: For dose-response studies, compounds are serially diluted 1:3 in dimethyl sulfoxide and then 1:10 into assay buffer. […]
Data Analysis: The amount of intracellular cAMP is quantitated using HTRF technology (Cisbio) as per vendor instructions. […] The HTRF signal is immediately detected using an ENVISION® plate reader (Perkin-Elmer) to calculate the ratio of fluorescence at […]. […] Relative […] values are calculated from the top-bottom range of the concentration response curve using a four-parameter logistic curve fitting program (ACTIVITYBASE® v5.3.1.22 or GENEDATA SCREENER® v12.0.4), and Kb values are estimated as agonist-corrected IC50 values using the equation: […]

[2] = target: T2, ABCB1, human P-glycoprotein (Pgp) (Homo sapiens, UniProt P08183); test: In vitro determination of efflux by Pgp, bi-directional transport across MDCKII cells; type: in vitro ADME; details: MDCKII-ABCB1, 5 μM substrate, 60 min, B-A/A-B Papp ratios with and without inhibitor
T2 construct: host or cells: MDCKII cells
T2 sequence (P08183 whole entry): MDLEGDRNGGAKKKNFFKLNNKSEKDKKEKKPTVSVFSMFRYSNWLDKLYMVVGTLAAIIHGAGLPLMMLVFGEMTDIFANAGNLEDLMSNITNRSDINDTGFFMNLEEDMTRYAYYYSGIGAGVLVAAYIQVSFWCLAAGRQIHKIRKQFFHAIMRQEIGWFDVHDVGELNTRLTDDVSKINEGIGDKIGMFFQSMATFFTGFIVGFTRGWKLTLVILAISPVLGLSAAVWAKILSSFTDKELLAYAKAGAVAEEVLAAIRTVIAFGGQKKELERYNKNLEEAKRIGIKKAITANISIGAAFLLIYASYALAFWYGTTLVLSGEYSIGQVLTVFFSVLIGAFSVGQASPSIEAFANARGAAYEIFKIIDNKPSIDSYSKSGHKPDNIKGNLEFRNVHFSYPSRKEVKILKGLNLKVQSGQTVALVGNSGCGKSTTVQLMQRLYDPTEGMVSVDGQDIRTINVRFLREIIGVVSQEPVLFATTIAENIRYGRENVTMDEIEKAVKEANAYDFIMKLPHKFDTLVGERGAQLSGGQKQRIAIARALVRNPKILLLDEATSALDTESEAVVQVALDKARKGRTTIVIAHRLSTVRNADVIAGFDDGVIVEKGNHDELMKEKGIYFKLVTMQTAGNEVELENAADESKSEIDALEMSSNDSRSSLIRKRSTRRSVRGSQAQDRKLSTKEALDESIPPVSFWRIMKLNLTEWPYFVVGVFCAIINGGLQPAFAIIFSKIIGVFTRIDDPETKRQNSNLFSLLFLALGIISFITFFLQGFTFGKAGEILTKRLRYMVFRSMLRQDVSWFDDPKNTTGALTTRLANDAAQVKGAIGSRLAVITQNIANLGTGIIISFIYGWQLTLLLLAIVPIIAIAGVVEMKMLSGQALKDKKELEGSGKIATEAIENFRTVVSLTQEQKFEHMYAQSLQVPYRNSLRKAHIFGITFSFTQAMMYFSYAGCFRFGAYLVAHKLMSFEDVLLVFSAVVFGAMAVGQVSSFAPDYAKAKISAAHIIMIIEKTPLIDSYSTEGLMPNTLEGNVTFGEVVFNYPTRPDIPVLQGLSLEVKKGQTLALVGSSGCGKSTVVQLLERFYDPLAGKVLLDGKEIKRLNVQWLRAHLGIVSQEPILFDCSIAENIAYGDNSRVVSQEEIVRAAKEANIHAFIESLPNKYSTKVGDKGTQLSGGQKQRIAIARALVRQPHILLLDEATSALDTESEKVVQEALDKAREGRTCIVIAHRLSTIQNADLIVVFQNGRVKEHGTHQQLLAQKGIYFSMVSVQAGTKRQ
Procedure: Cell Culture: MDCKII cells stably expressing human wild-type ABCB1 (Pgp) are obtained from the Netherlands Cancer Institute (Amsterdam, The Netherlands). MDCK cells are maintained as described previously (Desai et al., Mol Pharm 10:1249-1261, 2013).
Bi-directional transport across MDCK cells: The assay is essentially conducted as described previously (Desai et al., Mol Pharm 10:1249-1261, 2013). Transport is measured in both directions across uninhibited and inhibited cell monolayers using a substrate concentration of 5 μM diluted from a 10 mM DMSO stock solution (final DMSO concentration of 0.05%) and a single 60-min time interval. […] The apparent permeability coefficients (Papp) are estimated as the slope of the mass transported per 60 min relative to the total recovered mass. The basal-to-apical (B-A)/apical-to-basal (A-B) Papp ratios are calculated in the absence or presence of inhibitor in each cell line for net efflux ratio (NER).

Row | Kb [1] [nM] | net efflux ratio (NER) for efflux by Pgp [2] | Compound
1 | 0.08 ± 0.01 | 1.9 | Cc1cc(N2CCC2)cc(OCc2ccc([C@@H](C)[C@@]3(C)C(=O)NC[C@@H]3CF)cc2)n1 [Example 1, (3R,4R)-3-[(1R)-1-[4-[[4-(azetidin-1-yl)-6-methyl-2-pyridyl]oxymethyl]phenyl]ethyl]-4-(fluoromethyl)-3-methyl-pyrrolidin-2-one]
2 | 0.14 ± 0.02 | 1.6 | Cc1cc(N2CC(F)C2)cc(OCc2ccc([C@@H](C)[C@@]3(C)C(=O)NC[C@@H]3C)cc2)n1 [Example 2, (3R,4R)-3-[(1R)-1-[4-[[4-(3-fluoroazetidin-1-yl)-6-methyl-2-pyridyl]oxymethyl]phenyl]ethyl]-3,4-dimethyl-pyrrolidin-2-one]
3 | 0.1 ± 0.02 |  | Cc1cc(N2CC(F)C2)cc(OCc2ccc([C@@H](C)[C@@]3(C)C(=O)NC[C@@H]3CF)cc2)n1 [Example 3, (3R,4R)-3-[(1R)-1-[4-[[4-(3-fluoroazetidin-1-yl)-6-methyl-2-pyridyl]oxymethyl]phenyl]ethyl]-4-(fluoromethyl)-3-methyl-pyrrolidin-2-one]
